In US20260258032A1, “TYROSINE KINASE 2 INHIBITORS AND USES THEREOF” (BIOGEN MA INC., priority 2022, published 2026) one finds IC50 data, which are given here for 24 molecules.

The subject of test [1] is Tyk2 kinase activity on STAT4. The test can be described thus: pSTAT4 cell assay (MSD, NK92 cells). It counts as cell-based. The following applies: compounds 1 hr, stimulated 15 minutes. The procedure, abridged: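 Read-out: phospho-STAT in NK92 lysates, MSD format, anti-STAT4 antibodies. Cells were serum-starved, given compound for 1 hr (10 μM top, four-fold, 10 points) and IL2-stimulated (30 ng/mL, 15 min). Normalized percent activity vs log concentration, 4-parameter logistic fit gave IC50.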

Test [2] concerns the target T1, JH2 domain of human Tyk2 (Homo sapiens, UniProt P29597).
T1 construct: 10×His-tagged TYK2 JH2 domain (amino acid 575-876)
The test can be described thus: JH2 biochemical assay (TR-FRET probe displacement). It counts as binding. Conditions: JH2 biochemical assay. The method in brief:
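A probe-displacement TR-FRET readout: compounds, tested in 3-fold, 10-point dilutions starting at […], compete with 2 nM tracer for 2 nM His-tagged JH2 (residues 575-876) detected by 0.1 nM Tb-anti-His over 60 min. IC50 comes from 4-parameter fits of normalized 520/495 nm ratios.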
A general note: TR-FRET usually uses a lanthanide donor and a delayed reading to cut background.

Where a name gives a salt, the structure may show the parent alone. Bounds are passed on as bounds.

T1 sequence (P29597 575-876): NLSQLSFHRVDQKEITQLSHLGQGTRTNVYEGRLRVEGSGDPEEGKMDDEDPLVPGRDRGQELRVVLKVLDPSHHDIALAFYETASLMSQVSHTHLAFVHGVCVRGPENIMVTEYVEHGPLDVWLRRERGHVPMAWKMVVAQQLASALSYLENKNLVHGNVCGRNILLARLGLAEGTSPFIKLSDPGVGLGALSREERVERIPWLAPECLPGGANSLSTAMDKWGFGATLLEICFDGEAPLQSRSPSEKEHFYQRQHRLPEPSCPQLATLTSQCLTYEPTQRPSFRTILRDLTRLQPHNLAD

As to `CC(=O)Nc1cc2c(cn1)C1(CC1)CN2c1cc(C)cc(N2CC(C#N)(CF)C2)n1` [Example 196, N-(1′-(6-(3-cyano-3-(fluoromethyl)azetidin-1-yl)-4-methylpyridin-2-yl)-1′,2′-dihydrospiro[cyclopropane-1,3′-pyrrolo[3,2-c]pyridin]-6′-yl)acetamide], the IC50 – broadly, the point on the concentration scale where inhibition reaches its midpoint – was 100 to 1000 nM in test [1] and 10 to 100 nM in test [2].
As to `CCC1(C#N)CN(c2cc(C)cc(N3CC4(CC4)c4cnc(NC(C)=O)cc43)n2)C1` [Example 197, N-(1′-(6-(3-cyano-3-ethylazetidin-1-yl)-4-methylpyridin-2-yl)-1′,2′-dihydrospiro[cyclopropane-1,3′-pyrrolo[3,2-c]pyridin]-6′-yl)acetamide], the IC50 in test [1] is no less than 1000 nM; in test [2], 10 to 100 nM.
Consider `CC(=O)Nc1cc2c(cn1)C1(CC1)CN2c1cc(C)cc(N2CC(OC(F)F)C2)n1` [Example 198, N-(1′-(6-(3-(difluoromethoxy)azetidin-1-yl)-4-methylpyridin-2-yl)-1′,2′-dihydrospiro[cyclopropane-1,3′-pyrrolo[3,2-c]pyridin]-6′-yl)acetamide], for which the IC50 in test [1] is no less than 1000 nM; in test [2], 100 to 1000 nM.
For `COCCC1(C#N)CN(c2cc(C)cc(N3CC4(CC4)c4cnc(NC(C)=O)cc43)n2)C1` [Example 199, N-(1′-(6-(3-cyano-3-(2-methoxyethyl)azetidin-1-yl)-4-methylpyridin-2-yl)-1′,2′-dihydrospiro[cyclopropane-1,3′-pyrrolo[3,2-c]pyridin]-6′-yl)acetamide], in that order: no less than 1000 nM and 10 to 100 nM.
For `CC(=O)Nc1cc2c(cn1)C1(CC1)CN2c1cc(C)cc(N2CC(C)(C#N)C2)n1` [Example 200, N-(1′-(6-(3-cyano-3-methylazetidin-1-yl)-4-methylpyridin-2-yl)-1′,2′-dihydrospiro[cyclopropane-1,3′-pyrrolo[3,2-c]pyridin]-6′-yl)acetamide], the IC50 is 100 to 1000 nM in test [1] and 10 to 100 nM in test [2].
On to `CC(=O)Nc1cc2c(cn1)C1(CC1)CN2c1cc(C)cc(N2CC(C(F)F)C2)n1` [Example 201, N-(1′-(6-(3-(difluoromethyl)azetidin-1-yl)-4-methylpyridin-2-yl)-1′,2′-dihydrospiro[cyclopropane-1,3′-pyrrolo[3,2-c]pyridin]-6′-yl)acetamide trifluoroacetate], for which the 50% inhibitory concentration (IC50) was no less than 1000 nM in test [1] and 10 to 100 nM in test [2].
Take `CC(=O)Nc1cc2c(cn1)C1(CC1)CN2c1cc(C)cc(N2CC(C#N)(C(F)F)C2)n1` [Example 202, N-(1′-(6-(3-cyano-3-(difluoromethyl)azetidin-1-yl)-4-methylpyridin-2-yl)-1′,2′-dihydrospiro[cyclopropane-1,3′-pyrrolo[3,2-c]pyridin]-6′-yl)acetamide]: the IC50 in test [1] is no less than 1000 nM; in test [2] it was 10 to 100 nM.
For `CC(=O)Nc1cc2c(cn1)C1(CC1)CN2c1cc(C)cc(N2CC(S(C)(=O)=O)C2)n1` [Example 203, N-(1′-(4-methyl-6-(3-(methylsulfonyl)azetidin-1-yl)pyridin-2-yl)-1′,2′-dihydrospiro[cyclopropane-1,3′-pyrrolo[3,2-c]pyridin]-6′-yl)acetamide], in that order: no less than 1000 nM and 100 to 1000 nM.
For `CCS(=O)(=O)C1CN(c2cc(C)cc(N3CC4(CC4)c4cnc(NC(C)=O)cc43)n2)C1` [Example 204, N-(1′-(6-(3-(ethylsulfonyl)azetidin-1-yl)-4-methylpyridin-2-yl)-1′,2′-dihydrospiro[cyclopropane-1,3′-pyrrolo[3,2-c]pyridin]-6′-yl)acetamide], in that order: no less than 1000 nM and 100 to 1000 nM.
For `CC(=O)Nc1cc2c(cn1)C1(CC1)CN2c1cc(C)cc(N2CC(C)(O)C2)n1` [Example 205, N-(1′-(6-(3-hydroxy-3-methylazetidin-1-yl)-4-methylpyridin-2-yl)-1′,2′-dihydrospiro[cyclopropane-1,3′-pyrrolo[3,2-c]pyridin]-6′-yl)acetamide], in that order: no less than 1000 nM and 10 to 100 nM.
For `CC(=O)Nc1cc2c(cn1)C1(CC1)CN2c1cc(C)cc(N2CCOCC2)n1` [Example 206, N-(1′-(4-methyl-6-morpholinopyridin-2-yl)-1′,2′-dihydrospiro[cyclopropane-1,3′-pyrrolo[3,2-c]pyridin]-6′-yl)acetamide], the IC50 in test [1] was in the range of 100 to 1000 nM; in test [2], 10 to 100 nM.
Taken in the same sequence, the figures for `CC(=O)Nc1cc2c(cn1)C1(CC1)CN2c1cc(C)cc(N2CCN(C)CC2)n1` [Example 207, N-(1′-(4-methyl-6-(4-methylpiperazin-1-yl)pyridin-2-yl)-1′,2′-dihydrospiro[cyclopropane-1,3′-pyrrolo[3,2-c]pyridin]-6′-yl)acetamide] were no less than 1000 nM and 100 to 1000 nM.
In the case of `CC(=O)Nc1cc2c(cn1)C1(CC1)CN2c1cc(C)cc(N2CCC3(CC2)COC3)n1` [Example 208, N-(1′-(4-methyl-6-(2-oxa-7-azaspiro[3.5]nonan-7-yl)pyridin-2-yl)-1′,2′-dihydrospiro[cyclopropane-1,3′-pyrrolo[3,2-c]pyridin]-6′-yl)acetamide], the IC50 is no less than 1000 nM in test [1] and 100 to 1000 nM in test [2].
With `CC(=O)Nc1cc2c(cn1)C1(CC1)CN2c1cc(C)cc(N2C[C@H]3CNC[C@H]3C2)n1` [Example 209, N-(1′-(6-((3aR,6aS)-hexahydropyrrolo[3,4-c]pyrrol-2(1H)-yl)-4-methylpyridin-2-yl)-1′,2′-dihydrospiro[cyclopropane-1,3′-pyrrolo[3,2-c]pyridin]-6′-yl)acetamide trifluoroacetate], the figures for the half-inhibitory concentration (IC50) in test [1] and in test [2] were no less than 1000 nM and 100 to 1000 nM, respectively.
Taken in the same sequence, the figures for `CC(=O)Nc1cc2c(cn1)C1(CC1)CN2c1cc(C)cc(N2CC3CCNC3C2)n1` (stereo not drawn) [Example 210, N-(1′-(6-(hexahydropyrrolo[3,4-b]pyrrol-5(1H)-yl)-4-methylpyridin-2-yl)-1′,2′-dihydrospiro[cyclopropane-1,3′-pyrrolo[3,2-c]pyridin]-6′-yl)acetamide trifluoroacetate] were no less than 1000 nM and 100 to 1000 nM.
For `CC(=O)Nc1cc2c(cn1)C1(CC1)CN2c1cc(C)cc(N2CCNCC2)n1` [Example 211, N-(1′-(4-methyl-6-(piperazin-1-yl)pyridin-2-yl)-1′,2′-dihydrospiro[cyclopropane-1,3′-pyrrolo[3,2-c]pyridin]-6′-yl)acetamide trifluoroacetate], the half-maximal inhibitory concentration (IC50) in test [1] is no less than 1000 nM; in test [2], no more than 10 nM.
As to `CC(=O)Nc1cc2c(cn1)C1(CC1)CN2c1cc(C)cc(N2CCNC(CCO)C2)n1` (stereo not drawn) [Example 212, N-(1′-(6-(3-(2-hydroxyethyl)piperazin-1-yl)-4-methylpyridin-2-yl)-1′,2′-dihydrospiro[cyclopropane-1,3′-pyrrolo[3,2-c]pyridin]-6′-yl)acetamide trifluoroacetate], the IC50 in test [1] is no less than 1000 nM; in test [2], 100 to 1000 nM.
For `CC(=O)Nc1cc2c(cn1)C1(CC1)CN2c1cc(C)nc(N2CCOCC2)n1` [Example 213, N-(1′-(6-methyl-2-morpholinopyrimidin-4-yl)-1′,2′-dihydrospiro[cyclopropane-1,3′-pyrrolo[3,2-c]pyridin]-6′-yl)acetamide], in that order: no less than 1000 nM and 10 to 100 nM.
As to `CC(=O)Nc1cc2c(cn1)C1(CC1)CN2c1cc(C)nc(N2CCC(O)C2)n1` (stereo not drawn) [Example 214, N-(1′-(2-(3-hydroxypyrrolidin-1-yl)-6-methylpyrimidin-4-yl)-1′,2′-dihydrospiro[cyclopropane-1,3′-pyrrolo[3,2-c]pyridin]-6′-yl)acetamide], the IC50 in test [1] is no less than 1000 nM; in test [2], 100 to 1000 nM.
With `CC(=O)Nc1cc2c(cn1)C1(CC1)CN2c1cc(C)nc(N2CC(C#N)C2)n1` [Example 216, N-(1′-(2-(3-cyanoazetidin-1-yl)-6-methylpyrimidin-4-yl)-1′,2′-dihydrospiro[cyclopropane-1,3′-pyrrolo[3,2-c]pyridin]-6′-yl)acetamide], the values for the concentration for half-maximal inhibition (IC50) in test [1] and in test [2] were 100 to 1000 nM and 10 to 100 nM, respectively.
As for `CC(=O)Nc1cc2c(cn1)C1(CC1)CN2c1cc(C)nc(N2CC(F)C2)n1` [Example 217, N-(1′-(2-(3-fluoroazetidin-1-yl)-6-methylpyrimidin-4-yl)-1′,2′-dihydrospiro[cyclopropane-1,3′-pyrrolo[3,2-c]pyridin]-6′-yl)acetamide], the IC50 in test [1] is 100 to 1000 nM; in test [2], no more than 10 nM.
In the case of `CCC1(C#N)CN(c2nc(C)cc(N3CC4(CC4)c4cnc(NC(C)=O)cc43)n2)C1` [Example 219, N-(1′-(2-(3-cyano-3-ethylazetidin-1-yl)-6-methylpyrimidin-4-yl)-1′,2′-dihydrospiro[cyclopropane-1,3′-pyrrolo[3,2-c]pyridin]-6′-yl)acetamide], the IC50 is 100 to 1000 nM in test [1] and 10 to 100 nM in test [2].
With `COCCC1(C#N)CN(c2nc(C)cc(N3CC4(CC4)c4cnc(NC(C)=O)cc43)n2)C1` [Example 220, N-(1′-(2-(3-cyano-3-(2-methoxyethyl)azetidin-1-yl)-6-methylpyrimidin-4-yl)-1′,2′-dihydrospiro[cyclopropane-1,3′-pyrrolo[3,2-c]pyridin]-6′-yl)acetamide], the half-maximal inhibitory concentration (IC50) in test [1] was no less than 1000 nM; in test [2] it was 10 to 100 nM.
Take `CC(=O)Nc1cc2c(cn1)C1(CC1)CN2c1cc(C)nc(N2CC(C)(C#N)C2)n1` [Example 221, N-(1′-(2-(3-cyano-3-methylazetidin-1-yl)-6-methylpyrimidin-4-yl)-1′,2′-dihydrospiro[cyclopropane-1,3′-pyrrolo[3,2-c]pyridin]-6′-yl)acetamide]: the IC50 in test [1] is 100 to 1000 nM; in test [2], no more than 10 nM.
